# Measured values published in patent US11802127B2, “3,4-dihydro-2,7-naphthyridine-1,6(2H,7H)-diones as MEK inhibitors” (Pfizer Inc., priority 2021, dated 2023).
# Assays:
# [1] = system: ERK1/2(Thr202/Tyr204) phosphorylation (MEK-dependent) in A375 cells; assay: Cellular Phospho-p44/42 MAPK (Erk1/2) (Thr202/Tyr204) Assay; format: cell-based; conditions: Homo sapiens, A-375, 1-hour incubation, pERK1/2 (Thr202/Tyr204) In-Cell Western normalized to GAPDH
# Procedure: Inhibition of ERK1/2(Thr202/Tyr204) phosphorylation was determined by the following cellular assay, which comprises incubating cells with a compound for 1 hour and quantifying pERK signal by In-Cell Western on fixed cells and normalizing to GAPDH signal. A375 cells were obtained from the ATCC and grown in DMEM supplemented with 10% fetal bovine serum, penicillin/streptomycin, Glutamax®, non-essential amino acids, and sodium pyruvate. Cells were plated in 96-well plates at 30,000 cells/well and allowed to attach overnight at 37° C./5% CO2. Cells were treated with compounds prepared as a 10-point, 1:3 dilution series (range: 20 μM-0.05 nM; maximum concentration varied from 20 μM-1 μM), with a final DMSO concentration of 0.5%. Control wells contained either 0.5% DMSO alone (no inhibition control) or 1 μM of a potent control compound (complete inhibition control). After a 1-hour incubation, cells were fixed in 3.7% formaldehyde in dPBS (Dulbecco's phosphate-buffered saline) at room temperature for 20 minutes. Cells were then washed with dPBS and permeabilized in 100% MeOH at room temperature for 10 minutes. Following permeabilization, cells were washed in dPBS and incubated in LI-COR Blocking Buffer (LI-COR Biosciences, Cat #927-40000) for 1 hour or longer. Plates were then incubated with an antibody specific for the MEK-dependent ERK1/2 phosphorylation sites, threonine 202 and tyrosine 204 (Cell Signaling Technologies; Cat #9101), downstream of MEK in the MAP kinase signal transduction pathway, as well as GAPDH (Millipore; Cat #MAB374). pErk1/2 (Thr202/Tyr204) antibody was diluted in LI-COR blocking buffer containing 0.05% Tween-20 at 1:250; GAPDH was diluted at 1:2,500. The plates were incubated overnight at 4° C. After washing with PBS/0.05% Tween-20, the cells were incubated with fluorescently-labeled secondary antibodies (Anti-rabbit-Alexa Flour680, Invitrogen Cat #A21109; Anti-mouse-IRDye800CW, LI-COR Biosciences Cat #926-32210, both at 1:1000 dilution) for 1 hour. Cells were then washed, as above, and analyzed for fluorescence at both 680 and 800 nm wavelengths using the Odyssey CLx Infrared Imaging System (LI-COR Biosciences). Phosphorylated Erk1/2 (Thr202/Tyr204) signal was normalized to GAPDH signal for each well.
# [2] = MDR1 LLC-PK1 and BCRP MDCKII Permeability Assay: permeability coefficient (Papp); format: in vitro ADME; conditions: MDCK, test article 1 μM, 37° C.
# Procedure: (§1) Both LLC-PK1 and MDR1 transfected LLC-PK1 cells were cultured and plated according to manufacturer's recommendations with the exception that the passage media contained only 2% fetal bovine serum to extend passage time out to seven days.
# (§2) BCRP transfected MDCKII canine P-gp knockout cell line was cultured and plated according to manufacturer's recommendations.
# (§3) Both positive and negative controls were used to assess functionality of P-gp or BCRP efflux in the assays. Stock solutions for assay controls and the test article were prepared in DMSO for final test concentrations of 10 and 1 μM, respectively. Final organic concentration in the assay was 1%. All dosing solutions contained 10 μM lucifer yellow to monitor LLC-PK1 or MDCKII cell monolayer integrity.
# (§4) For the apical to basolateral determination (A to B), 75 μL of the test article in transport buffer were added to the apical side of the individual transwells and 250 μL of basolateral media, without compound or lucifer yellow, were added to each well. For the basolateral to apical determination (B to A), 250 μL of test article in transport buffer were added to each well and 75 μL transport buffer, without compound or lucifer yellow, were added to each transwell. All tests were performed in triplicate, and each compound was tested for both apical to basolateral and basolateral to apical transport. The plates were incubated for 2 hours on a Lab-Line Instruments Titer Orbital Shaker (VWR, West Chester, PA) at 50 rpm and 37° C. with 5% CO2. All culture plates were removed from the incubator and 50 μL of media were removed from the apical and basolateral portion of each well and added to 150 μL of 1 μM labetalol in 2:1 acetonitrile (acetonitrile): H2O, v/v.
# (§5) The plates were read using a Molecular Devices (Sunnyvale, CA) Gemini Fluorometer to evaluate the lucifer yellow concentrations at excitation/emission wavelengths of 425/535 nm. These values were accepted when found to be below 2% for apical to basolateral and 5% basolateral to apical flux across the MDR1-transfected LLC-PK1 or BCRP-transfected MDCKII cell monolayers. The plates were sealed and the contents of each well analyzed by LC-MS/MS. The compound concentrations were determined from the ratio of the peak areas of the compound to the internal standard (labetalol) in comparison to the dosing solution.
# (§6) The LC-MS/MS system was comprised of an HTS-PAL autosampler (Leap Technologies, Carrboro, NC), an HP1200 HPLC (Agilent, Palo Alto, CA), and a MDS Sciex 4000 Q Trap system (Applied Biosystems, Foster City, CA). […] The total run time, including re-equilibration, for a single injection was 1.2 minutes. Mass spectrometric detection of the analytes was accomplished using the ion spray positive mode. Analyte responses were measured by multiple reaction monitoring (MRM) of transitions unique to each compound (the protonated precursor ion and selected product ions for each test article and m/z 329 to m/z 162 for labetalol, the internal standard).
# BCRP (hBCRP) = molecular target: T1, BCRP (hBCRP) (Homo sapiens, UniProt Q9UNQ0); assay: Efflux ratio in BCRP transfected MDCKII canine P-gp knockout cells; format: in vitro ADME; conditions: Papp(B−A)/Papp(A−B), read-out: Efflux ratio MDCKII-hBCRP knock-in,canine pg-P KO
# T1 construct: expressed in transfected cells; host or cells: MDCKII (canine kidney) cells, canine P-gp knockout, transfected with BCRP
# T1 sequence (Q9UNQ0 1-655): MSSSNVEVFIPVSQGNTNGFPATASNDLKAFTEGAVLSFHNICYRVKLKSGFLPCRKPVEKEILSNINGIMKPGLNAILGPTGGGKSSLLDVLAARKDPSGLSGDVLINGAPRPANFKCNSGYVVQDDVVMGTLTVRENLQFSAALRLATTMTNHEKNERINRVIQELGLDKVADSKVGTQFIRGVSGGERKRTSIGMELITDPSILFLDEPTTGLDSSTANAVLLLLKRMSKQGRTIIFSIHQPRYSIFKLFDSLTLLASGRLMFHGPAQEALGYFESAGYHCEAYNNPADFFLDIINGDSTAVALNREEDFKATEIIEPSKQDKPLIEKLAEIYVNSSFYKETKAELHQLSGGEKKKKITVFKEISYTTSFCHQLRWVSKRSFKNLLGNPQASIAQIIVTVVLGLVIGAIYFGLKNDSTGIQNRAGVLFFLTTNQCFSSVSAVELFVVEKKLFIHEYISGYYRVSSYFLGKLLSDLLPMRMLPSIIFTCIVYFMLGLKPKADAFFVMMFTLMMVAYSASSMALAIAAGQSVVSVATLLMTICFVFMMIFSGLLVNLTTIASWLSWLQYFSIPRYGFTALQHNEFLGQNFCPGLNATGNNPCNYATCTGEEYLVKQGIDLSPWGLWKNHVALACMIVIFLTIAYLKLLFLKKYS
# Procedure: as §2, §3, §4, §5, §6
# (§7) An efflux ratio is calculated from the mean apical to basolateral (A−B) Papp data and basolateral to apical (B−A) Papp data: Efflux ratio=Papp(B−A)/Papp(A−B)
# P-gp (MDR1) = molecular target: T2, P-gp (MDR1) (Homo sapiens, UniProt P08183); assay: Efflux ratio in MDR1 transfected LLC-PK1 cells; format: in vitro ADME; conditions: pig, Papp(B−A)/Papp(A−B)
# T2 construct: expressed in transfected cells; host or cells: LLC-PK1 (porcine kidney) cells transfected with MDR1
# T2 sequence (P08183 whole entry): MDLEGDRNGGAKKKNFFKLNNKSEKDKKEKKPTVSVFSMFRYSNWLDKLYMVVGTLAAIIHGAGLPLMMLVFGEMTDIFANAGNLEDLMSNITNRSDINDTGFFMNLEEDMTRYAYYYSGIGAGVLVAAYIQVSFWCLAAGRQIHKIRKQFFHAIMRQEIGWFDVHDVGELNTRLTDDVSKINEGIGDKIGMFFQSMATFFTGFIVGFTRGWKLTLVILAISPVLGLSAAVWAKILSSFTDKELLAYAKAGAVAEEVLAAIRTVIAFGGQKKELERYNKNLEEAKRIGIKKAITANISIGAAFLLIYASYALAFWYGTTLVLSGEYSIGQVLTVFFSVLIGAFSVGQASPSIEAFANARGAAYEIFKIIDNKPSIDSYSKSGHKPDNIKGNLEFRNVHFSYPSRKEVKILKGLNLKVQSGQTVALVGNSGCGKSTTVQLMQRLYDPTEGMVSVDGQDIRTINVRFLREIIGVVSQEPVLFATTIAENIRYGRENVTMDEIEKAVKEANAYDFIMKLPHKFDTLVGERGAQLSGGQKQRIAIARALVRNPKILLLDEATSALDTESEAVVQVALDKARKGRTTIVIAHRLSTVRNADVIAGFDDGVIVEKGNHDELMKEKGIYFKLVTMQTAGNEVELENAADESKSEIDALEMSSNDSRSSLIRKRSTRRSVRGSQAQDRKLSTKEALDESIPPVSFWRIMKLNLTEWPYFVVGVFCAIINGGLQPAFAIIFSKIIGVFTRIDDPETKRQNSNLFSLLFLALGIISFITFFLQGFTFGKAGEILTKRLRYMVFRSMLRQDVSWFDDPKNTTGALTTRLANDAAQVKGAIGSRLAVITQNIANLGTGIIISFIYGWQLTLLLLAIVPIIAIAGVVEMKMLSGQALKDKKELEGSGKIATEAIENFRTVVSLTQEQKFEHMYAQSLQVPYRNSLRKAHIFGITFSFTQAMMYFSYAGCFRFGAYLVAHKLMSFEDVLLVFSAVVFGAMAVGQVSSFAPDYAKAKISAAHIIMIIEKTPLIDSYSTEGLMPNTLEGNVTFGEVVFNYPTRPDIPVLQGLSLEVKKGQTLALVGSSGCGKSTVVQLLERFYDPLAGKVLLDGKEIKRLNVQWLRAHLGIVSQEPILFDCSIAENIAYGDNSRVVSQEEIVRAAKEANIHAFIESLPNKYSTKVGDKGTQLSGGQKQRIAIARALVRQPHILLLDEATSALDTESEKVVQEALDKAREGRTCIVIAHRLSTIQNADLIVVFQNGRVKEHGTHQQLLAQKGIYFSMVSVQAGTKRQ
# Procedure: as §1, §3, §4, §5, §6, §7
SMILES,IC50 [1] [nM],"Papp at 2 h, 1 μM [2] [×10⁻⁶ cm/s]","efflux ratio at 2 h, 1 μM (BCRP (hBCRP))","efflux ratio at 2 h, 1 μM (P-gp (MDR1))"
Cn1c(Nc2ccc(Br)cc2F)c2c(cc1=O)CCN(C1CC1)C2=O [Example 1],562,27.2,1.1,1.4
"CCON1CCc2cc(=O)n(C)c(Nc3ccc(Br)cc3F)c2C1=O [Example 3, 8-((4-bromo-2-fluorophenyl)amino)-2-ethoxy-7-methyl-3,4-dihydro-2,7-naphthyridine-1,6(2H,7H)-dione]",456,46.2,0.9,1
"CSc1ccc(Nc2c3c(cc(=O)n2C)CCN(C2CC2)C3=O)c(F)c1 [Example 4, 2-cyclopropyl-8-((2-fluoro-4-(methylthio)phenyl)amino)-7-methyl-3,4-dihydro-2,7-naphthyridine-1,6(2H,7H)-dione]",74,26.1,1.1,1.3
"Cn1c(Nc2ccc(I)cc2F)c2c(cc1=O)CCN(C1CC1)C2=O [Example 5, 2-cyclopropyl-8-((2-fluoro-4-iodophenyl)amino)-7-methyl-3,4-dihydro-2,7-naphthyridine-1,6(2H,7H)-dione]",20,27.8,1,1.6
"Cn1c(Nc2ccc(I)cc2Cl)c2c(cc1=O)CCN(OCCO)C2=O [Example 9, 8-((2-chloro-4-iodophenyl)amino)-2-(2-hydroxyethoxy)-7-methyl-3,4-dihydro-2,7-naphthyridine-1,6(2H,7H)-dione]",3,27.1,3.2,7.7
"CC(C)c1ccc(Nc2c3c(cc(=O)n2C)CCN(OCCO)C3=O)c(F)c1 [Example 18, 8-((2-fluoro-4-isopropylphenyl)amino)-2-(2-hydroxyethoxy)-7-methyl-3,4-dihydro-2,7-naphthyrdine-1,6(2H,7H)-dione]",39,–,2,2.3
"Cc1c2c(c(Nc3ccc(Br)cc3F)n(C)c1=O)C(=O)NCC2 [Example 47, 8-((4-bromo-2-fluorophenyl)amino)-5,7-dimethyl-3,4-dihydro-2,7-naphthyridine-1,6(2H,7H)-dione]",97,31.5,–,1.3
"CSc1ccc(Nc2c3c(c(C)c(=O)n2C)CCN(OCCO)C3=O)c(F)c1 [Example 61, 8-((2-fluoro-4-(methylthio)phenyl)amino)-2-(2-hydroxyethoxy)-5,7-dimethyl-3,4-dihydro-2,7-naphthyridine-1,6(2H,7H)-dione]",11,26.9,–,3
"Cc1c2c(c(Nc3ccc(OC(F)F)cc3F)n(C)c1=O)C(=O)N(OCCO)CC2 [Example 62, 8-((4-(difluoromethoxy)-2-fluorophenyl)amino)-2-(2-hydroxyethoxy)-5,7-dimethyl-3,4-dihydro-2,7-naphthyridine-1,6(2H,7H)-dione]",17,26.1,–,5
"CSc1ccc(Nc2c3c(cc(=O)n2C)C(c2ccccc2)CNC3=O)c(F)c1 (centres unmarked) [Example 65, 8-((2-fluoro-4-(methylthio)phenyl)amino)-7-methyl-4-phenyl-3,4-dihydro-2,7-naphthyridine-1,6(2H,7H)-dione]",2,12.5,0.8,–
"CC1CNC(=O)c2c1cc(=O)n(C)c2Nc1ccc(Br)cc1F (centres unmarked) [Example 66, 8-((4-bromo-2-fluorophenyl)amino)-4,7-dimethyl-3,4-dihydro-2,7-naphthyrdine-1,6(2H,7H)-dione]",27,24.9,1,–
"CSc1ccc(Nc2c3c(cc(=O)n2C)C(C)CNC3=O)c(F)c1 (centres unmarked) [Example 67, 8-((2-fluoro-4-(methylthio)phenyl)amino)-4,7-dimethyl-3,4-dihydro-2,7-naphthyrdine-1,6(2H,7H)-dione]",8,28.3,1.1,–
"CC1CN(OCCO)C(=O)c2c1cc(=O)n(C)c2Nc1ccc(Br)cc1F (centres unmarked) [Example 68, 8-((4-bromo-2-fluorophenyl)amino)-2-(2-hydroxyethoxy)-4,7-dimethyl-3,4-dihydro-2,7-naphthyridine-1,6(2H,7H)-dione]",3,18.7,2.5,–
"CSc1ccc(Nc2c3c(cc(=O)n2C)C(C)CN(OCCO)C3=O)c(F)c1 (centres unmarked) [Example 69, 8-((2-fluoro-4-(methylthio)phenyl)amino)-2-(2-hydroxyethoxy)-4,7-dimethyl-3,4-dihydro-2,7-naphthyridine-1,6(2H,7H)-dione]",2,19.6,2.3,–
